Data from patent US12213985B2, “Oral cannabinoid formulations” (Jazz Pharmaceuticals Research UK Limited, priority 2016, dated 2025).
Where a SMILES comes first, the peptide text is derived from it.

What was measured:
[1] = Lowest ethanol concentration to solubilise Advantame, storage and observation for precipitation (ET03/015); format: physicochemical; conditions: Advantame 0.0025% w/v in sesame oil formulation
Procedure: An experiment (ET03/015) was carried out to determine the lowest ethanol concentration required to solubilise Advantame. Table 3 details the batches made with various ethanol concentrations ranging from 0.5% to 3.0% v/v.
These batches were stored at 25° C./60% RH and 40° C./75% RH for up to 4 weeks and observed for any signs of precipitation. There was no precipitation observed over the period assessed. Therefore it was concluded that Advantame can be used as a sweetener and can be solubilised at ethanol concentration of at least as low as 0.5% v/v. i.e. the concentration of ethanol required in the formulation can be reduced by a factor of 20 compared to a sucralose containing formulation.

[2] = derived from FDA website; cited from earlier work
[3] = Physical stability of Neotame formulations, open bottles standing 2 weeks; format: physicochemical
Procedure: The 25 mg/ml and 100 mg/ml batches were tested for physical stability by opening the bottles and allowing them to stand for 2 weeks to let the ethanol evaporate. This was done as a worst case in-use scenario where the bottle is repeatedly opened and closed multiple times during use. The batches were monitored for any signs of precipitation and the ethanol content measured.

[4] = Miscibility of alternative solvents with sesame oil; format: physicochemical; conditions: range of concentrations (0.5-10%) tested

SMILES	Acceptable Daily Intake [2] [mg/kg/day]	other results
COC(=O)[C@H](Cc1ccccc1)NC(=O)[C@H](CC(=O)O)NCCCc1ccc(OC)c(O)c1 [Advantame, N—[N-3-(3-hydroxy-4-methoxyphenyl)propyl-α-L-aspartyl]-L-phenylalanine 1-methyl ester]	32.8	ethanol concentration at which the sweetener can be solubilised [1]: ≤ 0.5 % v/v
COC(=O)[C@H](Cc1ccccc1)NC(=O)[C@@H](N)CC(=O)O [Aspartame] (H-Asp-Phe-OMe)	50	–
COC(=O)[C@H](Cc1ccccc1)NC(=O)[C@H](CC(=O)O)NCCC(C)(C)C [Neotame, N—[N-(3,3-dimethylbutyl)-L-α-aspartyl]-L-phenylalanine 1-methyl ester]	0.3	concentration at which Neotame can be physically solubilised ([3]; in ethanol): up to 0.01 % w/v; solubility in ethanol ([3]; room temperature): freely soluble
O.O.O=C1NS(=O)(=O)c2ccccc21 [Saccharin Dihydrate]	15	–
O=C1NS(=O)(=O)c2ccccc21 [Saccharin]	15	–
OC[C@H]1O[C@H](O[C@]2(CCl)O[C@H](CCl)[C@@H](O)[C@@H]2O)[C@H](O)[C@@H](O)[C@H]1Cl [Sucralose, reference compound]	5	–
OCC(O)CO [glycerin]	–	miscibility with sesame oil [4]: not satisfactory
CC(O)CO (centres unmarked) [propylene glycol]	–	miscibility with sesame oil [4]: not satisfactory
